Data taken from patent US8686178B2, “Derivative of 18β-glycyrrhetinic acid apt to suppress cancer cells” (Kaohsiung Medical University, priority 2011, dated 2014).

Columns and labels:
[1] = system: NTUB1 cells; assay: Trial (D): production of reactive oxygen species by flow cytometry (DCF); format: cell-based, human; settings: 24 hours
Procedure: In trial (D), production of reactive oxygen species (ROS) is analyzed by flow cytometry, since the levels of ROS play an important role in apoptosis.
Referring to TABLE 4, the NTUB1 cells at a density of 8×10^5 cells/ml are prepared and assigned into 5 groups, including D1 to D5, to incubate in various medium for 24 hours. Next, 10 μM of 2,7-dichlorodihydrofluorescein diacetate (H2DCFHDA; Molecular Probes, Eugene, Oreg.) is added to the NTUB1 cells of each group 30 minutes prior than harvest, followed by collecting the NTUB1 cells of each group respectively and washing with PBS buffer. With such arrangement, the 2,7-dichlorodihydrofluorescein diacetate will penetrate into cells, interact with esterase, and degrade to 2,7-dichlorofluorescein (DCF) having green fluorescein, which can be determined by flow cytometer. In trial (D), green fluorescence of intracellular DCF in each group are analyzed immediately by FACScan flow cytometer (Becton Dickinson) at a wavelength of 525 nm.

[2] = system: NTUB1 cells; assay: Trial (F): mitochondrial membrane potential (JC-1) by flow cytometry; format: cell-based, human; settings: for R1 (%): 30 minutes, JC-1, NTUB1
Procedure: In trial (F), mitochondrial membrane potential (MMP) in NTUB1 cells is measured according to a journal article published by Martin et al., at 2009 in PloS one, in which a dysfunction of the mitochondria caused by ROS induced MPP decrease is supposed.
Referring to TABLE 6, the NTUB1 cells at a density of 3×10^5 cells/ml are prepared and assigned into 5 groups, including F1 to F5, to incubate in 10 μM carbonyl cyanide 3-chlorophenylhydrazone (CCCP), and 10, 25 and 50 μM of 25 respectively, for 30 minutes, followed by adding 1 μM of 5,5′,6,6′-tetrachloro-1,1′,3,3′-tetraethylbenzimidaolylcarbocyanine iodide (JC-1) (Molecular Probes, Eugene, Oreg., USA) in each group. Then, the NTUB1 cells in each group are washed with PBS buffer for 3 times, collected in PBS/2% BSA, washed twice by centrifugating at 800 g, 5 minutes and resuspending in 0.3 mL PBS/2% BSA, and finally analyzed by a FACSCalibur flow cytometer (Becton Dickinson), with the FACSCalibur flow cytometer determining and calculating a ratio of JC-1 aggregates (red fluorescence) to JC-1 monomers (green fluorescence) based on levels of MMP in each group.

C=C(C)[C@@H]1CC[C@]2(C)[C@H](C(=O)C=C3[C@@H]4C[C@@](C)(C(=O)NC(C)C)CC[C@]4(C)CC[C@]32C)[C@@]1(C)CCC(=O)NC(C)C [Compound 25, 3,4-seco-11-oxo-18β-olean-4(23),12-dien-3,30-diisopropyl carbamate]
ROS (%) ([1]; 10 μM): 66.1%
ROS (%) ([1]; 25 μM): 85.6%
R1 (%) ([2]; 10 μM): 94.14%
R1 (%) ([2]; 25 μM): 87.17%
R1 (%) ([2]; 50 μM): 55.65%
mitochondrial membrane potential ([2]; NTUB1, TABLE 6): decrease MPP in cancer cells in a dose-dependent manner
